Measured values from ChEMBL document CHEMBL4433201, “Progress in the development of selective heme oxygenase-1 inhibitors and their potential therapeutic application” (Eur J Med Chem, 2019).
pIC50: −log10 of the molar value.

Experiments:
Heme oxygenase 1 [1] = biological target: T1, Heme oxygenase 1 (Rattus norvegicus, UniProt P06762); assay: Inhibition of HO-1 in Sprague-Dawley rat spleen microsomes using NADPH as substrate preincubated for 10 mins followed by substrate addition and measured after 15 mins by GC analysis
T1 sequence (P06762 whole entry): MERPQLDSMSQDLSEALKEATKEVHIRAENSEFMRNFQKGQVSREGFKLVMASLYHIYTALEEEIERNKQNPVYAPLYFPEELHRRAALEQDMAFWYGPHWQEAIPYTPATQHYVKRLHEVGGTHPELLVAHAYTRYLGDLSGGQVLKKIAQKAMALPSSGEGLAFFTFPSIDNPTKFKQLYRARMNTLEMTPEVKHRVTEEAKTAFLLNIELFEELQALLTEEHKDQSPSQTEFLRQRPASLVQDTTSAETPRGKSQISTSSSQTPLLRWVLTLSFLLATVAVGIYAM

Heme oxygenase 2 [2] = biological target: T2, Heme oxygenase 2 (Rattus norvegicus, UniProt P23711); assay: Inhibition of HO-2 in Sprague-Dawley rat brain microsomes using NADPH as substrate preincubated for 10 mins followed by substrate addition and measured after 15 mins by GC analysis
T2 sequence (P23711 whole entry): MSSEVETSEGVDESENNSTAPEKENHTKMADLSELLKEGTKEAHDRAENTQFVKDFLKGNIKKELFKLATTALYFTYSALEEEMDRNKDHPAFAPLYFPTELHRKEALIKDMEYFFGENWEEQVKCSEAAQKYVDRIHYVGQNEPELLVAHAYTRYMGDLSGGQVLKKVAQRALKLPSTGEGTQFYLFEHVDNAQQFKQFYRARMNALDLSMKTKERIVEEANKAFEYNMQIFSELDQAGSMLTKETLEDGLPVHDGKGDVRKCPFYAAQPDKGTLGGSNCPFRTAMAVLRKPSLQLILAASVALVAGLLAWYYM

Heme oxygenase 1 [3] = biological target: T1, Heme oxygenase 1; assay: Inhibition of HO-1 in Sprague-Dawley rat spleen microsomes using NADPH as substrate incubated for 60 mins by spectrometry based assay
[4] = Growth inhibition of […] B16 cells incubated for 72 hrs by sulforhodamine B assay; type: functional; conditions: B16, 72 h
Heme oxygenase 1 [5] = biological target: T3, Heme oxygenase 1 (Homo sapiens, UniProt P09601); assay: Inhibition of human recombinant HO-1 by spectrometry based assay
T3 sequence (P09601 whole entry): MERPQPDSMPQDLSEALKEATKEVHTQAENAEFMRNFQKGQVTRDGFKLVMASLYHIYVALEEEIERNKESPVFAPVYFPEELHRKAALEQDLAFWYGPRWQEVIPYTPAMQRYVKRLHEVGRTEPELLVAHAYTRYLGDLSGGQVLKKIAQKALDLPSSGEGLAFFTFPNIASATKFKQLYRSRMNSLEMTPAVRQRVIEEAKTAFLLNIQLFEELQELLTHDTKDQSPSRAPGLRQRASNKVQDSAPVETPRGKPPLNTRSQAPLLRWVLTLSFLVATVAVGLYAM

Heme oxygenase 2 [6] = biological target: T4, Heme oxygenase 2 (Homo sapiens, UniProt P30519); assay: Inhibition of HO-2 (unknown origin)
T4 sequence (P30519 whole entry): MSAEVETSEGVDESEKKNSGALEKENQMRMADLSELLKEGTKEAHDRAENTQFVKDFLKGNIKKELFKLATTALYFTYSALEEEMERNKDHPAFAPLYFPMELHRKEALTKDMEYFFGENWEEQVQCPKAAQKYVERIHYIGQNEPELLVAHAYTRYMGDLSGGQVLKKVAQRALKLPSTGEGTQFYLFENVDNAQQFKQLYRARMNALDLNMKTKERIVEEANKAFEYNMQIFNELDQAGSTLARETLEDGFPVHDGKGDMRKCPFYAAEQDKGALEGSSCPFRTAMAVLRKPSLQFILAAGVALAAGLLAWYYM

Compound	pIC50 (Heme oxygenase 1 [1])	pIC50 (Heme oxygenase 2 [2])	other results
Clc1ccc(Cn2c(CN3CCOCC3)nc3ccccc32)cc1	< 4.00	4.50	
Brc1ccc(Cn2c(CN3CCOCC3)nc3ccccc32)cc1	< 4.00	4.52	
O=C(Cn1ccnc1)c1ccc(Br)cc1			pIC50 (Heme oxygenase 1 [3]): 5.60
Brc1ccc(OCCCCCCn2ccnc2)cc1			pIC50 (Heme oxygenase 1 [3]): 5.00
O=[N+]([O-])c1ccc(C(O)Cn2ccnc2)cc1 (stereo not given)			pIC50 (Heme oxygenase 1 [3]): 5.00
Clc1ccc(Cn2c(CC3CC4CCC3C4)nc3ccccc32)cc1 (stereo not given)	< 4.00	5.37	
OC(Cn1ccnc1)c1cccc(Br)c1 (stereo not given)			pIC50 [4]: 4.43
Brc1ccc(CCCCn2ccnc2)cc1			pIC50 (Heme oxygenase 1 [5]): 6.60
Brc1ccc(Cn2c(CC3CC4CCC3C4)nc3ccccc32)cc1 (stereo not given)	< 4.00	5.29	
c1ccc(OCCn2ccnc2)cc1			pIC50 (Heme oxygenase 1 [3]): 4.55
Clc1ccc(Cn2c(CC3CCCCC3)nc3ccccc32)cc1	< 4.00	5.27	
FC(F)(F)c1ccc(COc2ccc(CCn3ccnc3)cc2)cc1			pIC50 (Heme oxygenase 1 [5]): 4.27
O=C(Cn1ccnc1)C12CC3CC(CC(C3)C1)C2			pIC50 (Heme oxygenase 2 [6]): < 4.00
COc1ccc2[nH]c(=O)c(-c3nc(-c4ccccc4)c(-c4ccccc4)[nH]3)cc2c1			pIC50 (Heme oxygenase 1 [3]): 5.04
Brc1ccc(Cn2c(CC3CCCCC3)nc3ccccc32)cc1	< 4.00	5.27	
c1ccc(COc2ccc(CCn3ccnc3)cc2)cc1			pIC50 (Heme oxygenase 1 [5]): 6.05
Brc1cccc(OCCCCn2ccnc2)c1			pIC50 (Heme oxygenase 2 [6]): 5.66
Brc1ccc(Cn2c(Cn3ccnc3)nc3ccccc32)cc1	5.57	5.38	
Brc1ccc(CCC2(Cn3ccnc3)OCCO2)cc1			pIC50 (Heme oxygenase 2 [6]): < 4.00; pIC50 (Heme oxygenase 1 [5]): 5.72
OC(Cn1ccnc1)c1ccc(-c2ccc(Br)cc2)cc1 (stereo not given)			pIC50 (Heme oxygenase 1 [5]): 7.22
Clc1ccc(Cn2c(CC3CCCC3)nc3ccccc32)cc1	4.49	5.48	
